Assay results published in the NIST ThermoML archive (doi:10.1021/je0504212).

Assays:
[1] = excess molar enthalpy (molar enthalpy of mixing); xn = mol fraction of the nth substance listed; settings: 308.15 K, 101 kPa, Liquid, Flow calorimetry
[2] = 308.5 K; 101.33 kPa; Liquid

CCOCCOCCO [3,6-dioxa-1-octanol] + OCc1ccccc1
[1]
Settings | excess molar enthalpy [kcal/mol]
x1 = 0.0289 | -0.0471
x1 = 0.0561 | -0.0828
x1 = 0.0819 | -0.1102
x1 = 0.1063 | -0.1318
x1 = 0.1514 | -0.1627
x1 = 0.1921 | -0.1839
x1 = 0.2629 | -0.2083
x1 = 0.3223 | -0.2197
x1 = 0.4164 | -0.225
x1 = 0.517 | -0.2142
x1 = 0.588 | -0.1989
x1 = 0.6816 | -0.1701
x1 = 0.7405 | -0.1475
x1 = 0.8106 | -0.1164
x1 = 0.8509 | -0.09579
x1 = 0.8954 | -0.0707
x1 = 0.9448 | -0.0393

CCOCCOCCOCC [diethylene glycol diethyl ether]
Settings | mass density [kg/m3]
[2] | 893.08

CCOCCOCCOCCO [2-(2-(2-ethoxyethoxy)ethoxy)ethanol] + OCc1ccccc1
[1]
Settings | excess molar enthalpy [kcal/mol]
x1 = 0.0241 | -0.0471
x1 = 0.047 | -0.08444
x1 = 0.0689 | -0.1138
x1 = 0.0898 | -0.1373
x1 = 0.129 | -0.1713
x1 = 0.1648 | -0.1944
x1 = 0.2284 | -0.2216
x1 = 0.283 | -0.236
x1 = 0.3719 | -0.2477
x1 = 0.4704 | -0.2462
x1 = 0.5422 | -0.2354
x1 = 0.6398 | -0.2077
x1 = 0.7031 | -0.1828
x1 = 0.7804 | -0.1459
x1 = 0.8257 | -0.1219
x1 = 0.8766 | -0.09221
x1 = 0.9343 | -0.0542

OCc1ccccc1 [benzenemethanol] + CCCCOCCCC
[1]
Settings | excess molar enthalpy [kcal/mol]
x2 = 0.0247 | -0.0016
x2 = 0.0481 | 0.000239
x2 = 0.0705 | 0.00425
x2 = 0.0918 | 0.00963
x2 = 0.1317 | 0.0222
x2 = 0.1682 | 0.0355
x2 = 0.2327 | 0.0605
x2 = 0.288 | 0.0821
x2 = 0.3776 | 0.1136
x2 = 0.4765 | 0.1406
x2 = 0.5482 | 0.1535
x2 = 0.6454 | 0.1627
x2 = 0.7082 | 0.1645
x2 = 0.7845 | 0.1608
x2 = 0.8292 | 0.1533
x2 = 0.8792 | 0.1362
x2 = 0.9357 | 0.09577

CCOCCO [2-ethoxyethan-1-ol] + OCc1ccccc1
[1]
Settings | excess molar enthalpy [kcal/mol]
x1 = 0.0424 | -0.0217
x1 = 0.0814 | -0.0387
x1 = 0.1173 | -0.0522
x1 = 0.1505 | -0.0635
x1 = 0.21 | -0.0803
x1 = 0.2617 | -0.09209
x1 = 0.3471 | -0.1055
x1 = 0.4148 | -0.1101
x1 = 0.5154 | -0.1094
x1 = 0.6147 | -0.1001
x1 = 0.6802 | -0.08972
x1 = 0.7613 | -0.0722
x1 = 0.8097 | -0.0592
x1 = 0.8645 | -0.0422
x1 = 0.8948 | -0.0319
x1 = 0.9273 | -0.0211
x1 = 0.9623 | -0.00994

OCCOCCO [diethylene glycol]
Settings | mass density [kg/m3]
[2] | 1105.86

CCOCCOCCOCC [diethylene glycol diethyl ether] + OCc1ccccc1
[1]
Settings | excess molar enthalpy [kcal/mol]
x1 = 0.0234 | -0.0401
x1 = 0.0458 | -0.0728
x1 = 0.0672 | -0.09959
x1 = 0.0876 | -0.1215
x1 = 0.1259 | -0.1547
x1 = 0.1611 | -0.1773
x1 = 0.2236 | -0.203
x1 = 0.2774 | -0.2131
x1 = 0.3655 | -0.2129
x1 = 0.4635 | -0.1973
x1 = 0.5353 | -0.1792
x1 = 0.6334 | -0.1493
x1 = 0.6973 | -0.1268
x1 = 0.7756 | -0.09598
x1 = 0.8217 | -0.0766
x1 = 0.8736 | -0.0537
x1 = 0.9325 | -0.0274

OCc1ccccc1 [benzenemethanol]
Settings | mass density [kg/m3]
[2] | 1033.64

OCCOCCOCCO [triethylene glycol]
Settings | mass density [kg/m3]
[2] | 1112.59

CCOCCOCC [1,2-diethoxyethane] + OCc1ccccc1
[1]
Settings | excess molar enthalpy [kcal/mol]
x1 = 0.0296 | -0.0118
x1 = 0.0575 | -0.0292
x1 = 0.0838 | -0.0483
x1 = 0.1087 | -0.0659
x1 = 0.1546 | -0.09515
x1 = 0.196 | -0.1143
x1 = 0.2678 | -0.1312
x1 = 0.3278 | -0.1323
x1 = 0.4225 | -0.1224
x1 = 0.5232 | -0.1073
x1 = 0.594 | -0.09457
x1 = 0.687 | -0.0683
x1 = 0.7453 | -0.0439
x1 = 0.8144 | -0.0092
x1 = 0.8541 | 0.0102
x1 = 0.8977 | 0.0262
x1 = 0.9461 | 0.0297

CCOCCOCCOCCO [2-(2-(2-ethoxyethoxy)ethoxy)ethanol]
Settings | mass density [kg/m3]
[2] | 1008.8

CCOCCOCC [1,2-diethoxyethane]
Settings | mass density [kg/m3]
[2] | 826.22

CCOCCO [2-ethoxyethan-1-ol]
Settings | mass density [kg/m3]
[2] | 916

CCOCCOCCO [3,6-dioxa-1-octanol]
Settings | mass density [kg/m3]
[2] | 974.67

COCCOC [1,2-dimethoxyethane]
Settings | mass density [kg/m3]
[2] | 850.28

COCCOC [1,2-dimethoxyethane] + OCc1ccccc1
[1]
Settings | excess molar enthalpy [kcal/mol]
x1 = 0.0395 | 0.0173
x1 = 0.076 | 0.0136
x1 = 0.1098 | 0.000693
x1 = 0.1413 | -0.0149
x1 = 0.1979 | -0.0436
x1 = 0.2476 | -0.0633
x1 = 0.3305 | -0.0801
x1 = 0.3969 | -0.08
x1 = 0.4968 | -0.0624
x1 = 0.5969 | -0.0293
x1 = 0.6638 | 0.00306
x1 = 0.7476 | 0.0543
x1 = 0.7979 | 0.08707
x1 = 0.8555 | 0.1169
x1 = 0.8876 | 0.1236
x1 = 0.9221 | 0.1161
x1 = 0.9595 | 0.08243
